Columns and labels:
Human recombinant CK1ε = biological target: T1, Human recombinant CK1ε (Homo sapiens, UniProt P49674); assay: CK1ε assay (luminescent detection of ADP); format: biochemical; conditions: 10 nM enzyme, 50 µM ATP, 50 µM substrate peptide, 40 min incubation
T1 construct: purchased Life Technologies
Experimental: (§1) The enzymatic activity of Cdk5 is determined with a commercial system, available from Promega (Madison, WI, USA) based on the luminescent detection of ADP, the byproduct of the kinase reaction. Human recombinant Cdk5/p35 heterodimer (purchased from Life Technologies, Carlsbad, CA, USA) is used as the enzyme source. At the end of the enzymatic reaction the remaining ATP is destroyed and afterwards the ADP produced during the kinase reaction is converted into ATP, which is further converted into light using a suitable luciferase. Therefore, the luminescent signal positively correlates with kinase activity. The assay is performed in 96-well conical bottom black plates, in a final volume of 12 µl with 10 nM enzyme concentration in 40 mM Tris-HCl pH 7.4, 20 mM MgCl2 and 0.01% bovine serum albumin using 10 µM ATP and 2 µM substrate. […] The assay is carried out in the presence of different concentrations of the tested compound, at a final 1% (v/v) DMSO concentration. After a 40 min incubation, at room temperature, 12 µl of a commercial "ADP Glo" solution (from Promega) is added to remove the remaining ATP and a subsequent 40 min incubation at room temperature is performed before adding 24 µl of a suitable "detection reagent" (also supplied by Promega) needed to carry out the transformation of ADP into ATP and its conversion into light by the luciferase enzyme included in the reagent. After a final 30 min incubation at room temperature luminescence is monitored in a suitable plate reader. […] For that purpose the data were fitted to a version of the classical 4-parameters isotherm equation using the nonlinear regression function of GraphPad™ Prism 5.0 (GraphPad Software Inc.).
The enzymatic activity of CK1ε is determined with the same commercial system described above based on the luminescent detection of ADP. Human recombinant CK1ε (purchased from Life Technologies) is used as the enzyme source. The assay is performed in 96-well conical bottom black plates, in a final volume of 12 µl with 10 nM enzyme concentration in 40 mM Tris-HCl pH 7.4, 20 mM MgCl2 and 0.01% bovine serum albumin using 50 µM ATP and 50 µM substrate peptide. The latter is a synthetic peptide provided by AnaSpec (Fremont, CA, USA) under the commercial name "CK1 peptide substrate" and it is based on the sequence of rabbit muscle glycogen synthase with Ser7 phosphorylated (the exact sequence of the peptide is KRRRAL(pS)VASLPGL, where (pS) denotes phospho-Ser). The assay is carried out in the presence of different concentrations of the tested compound at a final 1% (v/v) DMSO concentration.

Human recombinant GSK-3β = biological target: T2, Human recombinant GSK-3β (Homo sapiens, UniProt P49841); assay: GSK-3β assay (luminescent detection of ADP); format: biochemical; conditions: 4 nM enzyme, 5 µM ATP, 15 µM substrate peptide, 40 min incubation
T2 construct: purchased Millipore
T2 sequence (P49841 whole entry): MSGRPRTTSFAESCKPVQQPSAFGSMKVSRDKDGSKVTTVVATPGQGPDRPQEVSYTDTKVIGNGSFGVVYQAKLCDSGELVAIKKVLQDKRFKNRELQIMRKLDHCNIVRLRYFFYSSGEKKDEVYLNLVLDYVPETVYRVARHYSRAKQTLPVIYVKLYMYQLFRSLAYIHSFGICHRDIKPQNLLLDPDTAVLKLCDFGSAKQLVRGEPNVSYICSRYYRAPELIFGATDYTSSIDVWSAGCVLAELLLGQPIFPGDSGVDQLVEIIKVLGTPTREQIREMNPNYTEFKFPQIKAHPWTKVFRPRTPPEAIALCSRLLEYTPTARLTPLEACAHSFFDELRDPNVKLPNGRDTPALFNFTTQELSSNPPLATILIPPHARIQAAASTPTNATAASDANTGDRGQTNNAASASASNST
Experimental: as §1
The enzymatic activity of GSK-3β is determined with the same commercial system described above based on the luminescent detection of ADP. Human recombinant GSK-3β (purchased from Millipore) is used as the enzyme source. […] The assay is carried out in the presence of different concentrations of the tested compound at a final 1% (v/v) DMSO concentration.

[1] = biological target: T3, Human recombinant Cdk5/p35 heterodimer (Homo sapiens, UniProt Q00535); assay: Cdk5 assay (luminescent detection of ADP, ADP Glo); format: biochemical; conditions: 10 nM enzyme, 10 µM ATP, 2 µM histone H1, 40 min incubation
T3 construct: purchased Life Technologies
T3 sequence (Q00535 whole entry): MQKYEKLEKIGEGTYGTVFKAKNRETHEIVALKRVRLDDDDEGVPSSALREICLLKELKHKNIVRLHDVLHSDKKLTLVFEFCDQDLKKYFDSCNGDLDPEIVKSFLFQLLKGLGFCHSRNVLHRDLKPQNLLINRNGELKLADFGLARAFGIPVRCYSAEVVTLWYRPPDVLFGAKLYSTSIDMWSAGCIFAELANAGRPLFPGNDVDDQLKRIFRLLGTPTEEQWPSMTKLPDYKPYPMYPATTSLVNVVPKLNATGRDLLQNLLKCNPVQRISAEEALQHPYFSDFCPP
T3 sequence (Q15078 whole entry partner): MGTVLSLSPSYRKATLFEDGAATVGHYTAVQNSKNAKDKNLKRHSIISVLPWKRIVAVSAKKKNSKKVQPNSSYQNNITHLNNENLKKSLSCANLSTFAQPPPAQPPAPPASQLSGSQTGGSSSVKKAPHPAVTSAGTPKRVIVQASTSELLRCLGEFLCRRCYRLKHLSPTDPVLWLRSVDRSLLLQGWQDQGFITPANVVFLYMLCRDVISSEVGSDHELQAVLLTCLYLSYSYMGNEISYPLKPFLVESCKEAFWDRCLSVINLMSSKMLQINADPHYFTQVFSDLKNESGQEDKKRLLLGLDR
Experimental: as §1

[2] = system: phosphorylation at the Ser-396 residue of Tau protein in human neuroblastoma SH-SY5Y cells; assay: Cellular assay: phosphorylation at Ser-396 of Tau protein (ELISA); format: cell-based; conditions: 16 h incubation with compound, read-out: pSer396-Tau 16h pEC50 average (converted)
Experimental: The effect of the compounds in cells is determined by monitoring the level of phosphorylation at the Ser-396 residue of Tau protein in human neuroblastoma SH-SY5Y cells. Cells are grown in 96-well plates, 30,000 cells per well in a volume of 100 µl of 1:1 MEM:Ham's F12 medium including 10% (v/v) fetal bovine serum, 100 U/ml penicillin, 100 µg/ml streptomycin and 1% (v/v) 100-fold concentrated commercial stock of non-essential aminoacids (Gibco, Carlsbad, CA, USA), and incubated at 37°C during 24 h. Then, the corresponding amount of test compound is added to the wells to reach the desired concentration in 1% (v/v) DMSO. The system is incubated at 37°C during 16 h and afterwards cells are harvested, washed with phosphate buffer saline and incubated during 30 min on ice with 120 µl per well of "lysis buffer" (10 mM Tris-HCl pH 7.4, 100 mM NaCl, 1 mM EDTA, 2 mM sodium orthovanadate, 1% (v/v) Triton X-100, 10% (v/v) glycerol, 0.1% (w/v) sodium dodecyl sulfate, 0.5 % (w/v) sodium deoxycholate, 4% (v/v) 25-fold concentrated commercial stock of protease inhibitors (Roche, Basel, Switzerland) and 1 mM phenylmethylsulfonyl fluoride). 60 µl of this mixture is then placed in an empty 96-well plate and the levels of Ser-396 phosphorylation are determined using a commercial ELISA kit (Biosource, Carlsbad, CA, USA) following manufacturer's instructions. The levels of phosphrylation are expressed as percentage values after normalizing them to those in untreated cells and those values are used to calculate the pEC50s as described above.

T1 sequence (P49674 whole entry): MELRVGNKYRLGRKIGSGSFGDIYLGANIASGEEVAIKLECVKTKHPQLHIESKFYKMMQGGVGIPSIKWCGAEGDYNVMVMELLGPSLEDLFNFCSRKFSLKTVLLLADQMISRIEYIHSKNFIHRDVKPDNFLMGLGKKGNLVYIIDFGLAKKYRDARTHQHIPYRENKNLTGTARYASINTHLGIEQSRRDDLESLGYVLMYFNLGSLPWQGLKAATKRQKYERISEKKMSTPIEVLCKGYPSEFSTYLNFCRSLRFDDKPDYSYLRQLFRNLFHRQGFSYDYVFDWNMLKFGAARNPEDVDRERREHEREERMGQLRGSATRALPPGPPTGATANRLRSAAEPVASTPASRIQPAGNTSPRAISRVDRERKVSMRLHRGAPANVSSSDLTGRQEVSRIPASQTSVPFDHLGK

`Cc1cc(-c2c(O)[nH]c3ccccc23)nc(N)n1` [Comparative example, reference compound] gave an EC50 (Human recombinant CK1ε; read-out: CK1 inhibition pEC50 average (converted)) of 3160 nM, an EC50 (Human recombinant GSK-3β; read-out: GSK3β inhibition pEC50 average (converted)) of 398 nM and an EC50 ([1]; read-out: Cdk5 inhibition pEC50 average (converted)) of 501 nM.

With `Nc1nccc(-c2c(O)[nH]c3ccccc23)n1` [Compound 1, 3-(2-Amino-4-pyrimidinyl)-2-oxoindole] the “CK1 inhibition pEC50 average” value (Human recombinant CK1ε) was 6.1, the “GSK3β inhibition pEC50 average” value (Human recombinant GSK-3β) was 6.9 and the “Cdk5 inhibition pEC50 average” value [1] was 8.2.

In the case of `CS(=O)(=O)c1ccc2c(-c3ccnc(N)n3)c(O)[nH]c2c1` [Compound 2, 3-(2-Amino-4-pyrimidinyl) -6-methanesulfonyl-2-oxoindole], the “CK1 inhibition pEC50 average” value (Human recombinant CK1ε) is reported as 5.4, the “GSK3β inhibition pEC50 average” value (Human recombinant GSK-3β) is reported as 5.3 and the “Cdk5 inhibition pEC50 average” value [1] is reported as 6.7.

With `Nc1nccc(-c2c(O)[nH]c3ccc(Br)cc23)n1` [Compound 3, 3-(2-Amino-4-pyrimidinyl)-5-Bromo-2-oxoindole] the “CK1 inhibition pEC50 average” value (Human recombinant CK1ε) was 6.1, the “GSK3β inhibition pEC50 average” value (Human recombinant GSK-3β) was 7.8 and the “Cdk5 inhibition pEC50 average” value [1] was 8.3.

With `Nc1nccc(-c2c(O)[nH]c3ccc(F)cc23)n1` [Compound 4, 3-(2-Amino-4-pyrimidinyl) -5-Fluoro-2-oxoindole] the “CK1 inhibition pEC50 average” value (Human recombinant CK1ε) was 6.5, the “GSK3β inhibition pEC50 average” value (Human recombinant GSK-3β) was 7.5 and the EC50 [2] was 1260 nM. The “Cdk5 inhibition pEC50 average” value [1] was 7.5.

In the case of `Nc1nccc(-c2c(O)[nH]c3ccc(Cl)cc23)n1` [Compound 5, 3-(2-Amino-4-pyrimidinyl) -5-Chloro-2-oxoindole], the “CK1 inhibition pEC50 average” value (Human recombinant CK1ε) is reported as 6.7, the “GSK3β inhibition pEC50 average” value (Human recombinant GSK-3β) is reported as 7.9 and the EC50 [2] is reported as 316 nM. For the same compound, the “Cdk5 inhibition pEC50 average” value [1] was 8.8.

With `Nc1nccc(-c2c(O)[nH]c3ccc([N+](=O)[O-])cc23)n1` [Compound 6, 3-(2-Amino-4-pyrimidinyl) -5-Nitro-2-oxoindole] the “CK1 inhibition pEC50 average” value (Human recombinant CK1ε) was 4.7, the “GSK3β inhibition pEC50 average” value (Human recombinant GSK-3β) was 6.7 and the EC50 [2] was 10000 nM. The “Cdk5 inhibition pEC50 average” value [1] was 6.9.

`COC(=O)c1ccc2c(-c3ccnc(N)n3)c(O)[nH]c2c1` [Compound 7, 3-(2-Amino-4-pyrimidinyl) -2-oxoindole-6-carboxylic acid methyl ester] was tested, and the “CK1 inhibition pEC50 average” value (Human recombinant CK1ε) was 5.9, the “GSK3β inhibition pEC50 average” value (Human recombinant GSK-3β) was 6.6 and the “Cdk5 inhibition pEC50 average” value [1] was 6.8.

`Nc1nccc(-c2c(O)[nH]c3ccc(F)c(F)c23)n1` [Compound 8, 3-(2-Amino-4-pyrimidinyl)-4,5-difluoro-2-oxoindol] was tested, and the “CK1 inhibition pEC50 average” value (Human recombinant CK1ε) was less than 4, the “GSK3β inhibition pEC50 average” value (Human recombinant GSK-3β) was 7.6 and the “Cdk5 inhibition pEC50 average” value [1] was 7.6.

Source: EP2647634A1, “Indole-pyrimidine derivatives and their therapeutic uses” (NOSCIRA, S.A., priority 2012, dated 2013)
